From ChEMBL document CHEMBL4483862, “Open-source discovery of chemical leads for next-generation chemoprotective antimalarials” (2018)

System: Plasmodium berghei
Assay: Luciferase/luciferin-expressing antifolate-resistant parasites were used to infect a culture of HepG2 cells that were pre-incubated with compounds. Infected hepatocytes emit light due to the luciferase reaction. Assay results are presented as the percent inhibition of light emission compared to control. […]
Format: functional
Details: sporozoite; for IC90: read-out: LUCIFERASE INFECTION ASSAY - IC90
[1] = read-out: LUCIFERASE INFECTION ASSAY - IC50

SMILES | IC50 [1] [µM] | IC90 [µM] | further results
c1nc(NCC23CC4CC(CC(C4)C2)C3)c2sccc2n1 | > 10 | > 10 | –
CCN(CC)c1ccc(/C=C(\C#N)c2nc3c(s2)CC(C)CC3)cc1 (stereo unspecified) | – | > 10 | IC50 (HEPG2TOX_HILL_SLOPE 34.4, HEPG2TOX_R_SQUARED 0.353, PBLUC_HILL_SLOPE 1.55, PBLUC_R_SQUARED 0.645, read-out: LUCIFERASE INFECTION ASSAY - IC50): 4.58 µM
CCn1c(NC(=O)c2oc3ccccc3c2COC)nc2ccccc21 | – | 4.5 | IC50 (PBLUC_HILL_SLOPE 11.7, PBLUC_R_SQUARED 0.368, read-out: LUCIFERASE INFECTION ASSAY - IC50): 3.72 µM
O=C(NC1CCCc2ccccc21)c1cc(-c2cccs2)nn1-c1ccccc1 (stereo unspecified) | – | > 10 | IC50 (FFLUC_HILL_SLOPE 14.9, FFLUC_R_SQUARED 0.608, PBLUC_HILL_SLOPE 2.01, PBLUC_R_SQUARED 0.0278, read-out: LUCIFERASE INFECTION ASSAY - IC50): 6.82 µM
O=C(Cc1cc(Cl)c2c(c1)OCCO2)NC(c1ccccc1)c1cccs1 (stereo unspecified) | > 10 | > 10 | –
CC(=O)c1ccc(S(=O)(=O)N(Cc2c(F)cccc2Cl)C2CC2)cc1 | > 10 | > 10 | –
CN(C)c1ccccc1-c1cnc2sc(NC3CCC(O)CC3)nn12 (stereo unspecified) | 8.17 | > 9.23 | –
COc1ccc(OCC[N+](C)(Cc2csc(Nc3ccccc3)n2)Cc2csc(Nc3ccccc3)n2)cc1 | – | 7.93 | IC50 (HEPG2TOX_HILL_SLOPE 7.97, HEPG2TOX_R_SQUARED 0.988, PBLUC_HILL_SLOPE 3.3, PBLUC_R_SQUARED 0.694, read-out: LUCIFERASE INFECTION ASSAY - IC50): 4.08 µM
CN(Cc1cn(-c2ccccc2)nc1-c1ccccc1)C(=O)NCCCc1nc2ccccc2[nH]1 | > 10 | > 10 | –
CC12C/C(=C\c3ccccc3)C(O)CC1CCC1C2CCC2(C)C1CC[C@]2(C)O (stereo partly specified) | – | > 8.36 | IC50 (FFLUC_HILL_SLOPE 0.541, FFLUC_R_SQUARED 0.353, PBLUC_HILL_SLOPE 12.3, PBLUC_R_SQUARED 0.0329, read-out: LUCIFERASE INFECTION ASSAY - IC50): > 8.36 µM
Nc1nccc(/C=C/c2c(F)cccc2Cl)n1 | – | > 13.2 | IC50 (HEPG2TOX_HILL_SLOPE 2, HEPG2TOX_R_SQUARED 0.972, PBLUC_HILL_SLOPE 2.11, PBLUC_R_SQUARED 0.172, read-out: LUCIFERASE INFECTION ASSAY - IC50): 8.94 µM
CCN(CC)Cc1nc(Oc2ccc(C)cc2OC)c2c(C)c(C)sc2n1 | – | > 10 | IC50 (HEPG2TOX_HILL_SLOPE 7.2, HEPG2TOX_R_SQUARED 0.121, read-out: LUCIFERASE INFECTION ASSAY - IC50): > 10 µM
COc1ccc(-c2cc(NS(=O)(=O)c3cccc(F)c3)n(-c3ccc(Cl)c(Cl)c3)n2)cc1 | – | > 6.7 | IC50 (HEPG2TOX_HILL_SLOPE 1.65, HEPG2TOX_R_SQUARED 0.946, PBLUC_HILL_SLOPE 2.05, PBLUC_R_SQUARED 0.116, read-out: LUCIFERASE INFECTION ASSAY - IC50): 2.95 µM
O=C(NC1CCN(Cc2ccccc2)CC1)N1CCN(Cc2ccc(Br)s2)CC1 | – | 4.35 | IC50 (HEPG2TOX_HILL_SLOPE 3.62, HEPG2TOX_R_SQUARED 0.356, PBLUC_HILL_SLOPE 12.1, PBLUC_R_SQUARED 0.388, read-out: LUCIFERASE INFECTION ASSAY - IC50): 3.62 µM
Cn1c2ccccc2c(=O)c2c(=O)n(CCc3ccccc3)c(-c3ccco3)nc21 | 2.64 | 5.38 | –
O=C(Nc1ccc(OC(F)(F)F)cc1)N1CCc2nc(Nc3cc(Cl)cc(Cl)c3)ncc2C1 | > 6.62 | > 6.62 | –
c1ccc(-c2cn3nc(N4CCN(Cc5cn6ccccc6n5)CC4)sc3n2)cc1 | – | 6.12 | IC50 (FFLUC_HILL_SLOPE 1.63, FFLUC_R_SQUARED 0.146, PBLUC_HILL_SLOPE 1.5, PBLUC_R_SQUARED 0.683, read-out: LUCIFERASE INFECTION ASSAY - IC50): 1.42 µM
Oc1c(C(Nc2ccccn2)c2ccsc2)cc(Cl)c2cccnc12 (stereo unspecified) | – | > 8.97 | IC50 (FFLUC_HILL_SLOPE 4.25, FFLUC_R_SQUARED 0.273, HEPG2TOX_HILL_SLOPE 7.18, HEPG2TOX_R_SQUARED 0.784, PBLUC_HILL_SLOPE 2.69, PBLUC_R_SQUARED 0.266, read-out: LUCIFERASE INFECTION ASSAY - IC50): 4.02 µM
CCOC(=O)C1(C)CCCCN1C(=O)c1ccc(C(=O)OC)cc1 (stereo unspecified) | > 9.9 | > 9.9 | –

SMILES | IC50 [1] [µM] | IC90 [µM] | further results
S=C(N/N=C/c1ccccn1)Nc1ccc(Cl)c(Cl)c1 | – | > 10.1 | IC50 (HEPG2TOX_HILL_SLOPE 7.56, HEPG2TOX_R_SQUARED 0.274, PBLUC_HILL_SLOPE 6.84, PBLUC_R_SQUARED 0.4, read-out: LUCIFERASE INFECTION ASSAY - IC50): 7.65 µM
COc1cc2c(cc1OC)C(c1cccs1)N(CC(=O)Nc1ccccc1C(F)(F)F)CC2 (stereo unspecified) | – | > 10 | IC50 (FFLUC_HILL_SLOPE 19.7, FFLUC_R_SQUARED 0.151, HEPG2TOX_HILL_SLOPE 1.77, HEPG2TOX_R_SQUARED 0.955, PBLUC_HILL_SLOPE 2.27, PBLUC_R_SQUARED 0.356, read-out: LUCIFERASE INFECTION ASSAY - IC50): 5.2 µM
CC(C)[C@H](NC(=O)c1ccc(Cl)cc1)C(=O)OCC(=O)NCCc1ccc(S(N)(=O)=O)cc1 | – | > 10 | IC50 (HEPG2TOX_HILL_SLOPE 0.118, HEPG2TOX_R_SQUARED 0.186, PBLUC_HILL_SLOPE 0.264, PBLUC_R_SQUARED 0.0178, read-out: LUCIFERASE INFECTION ASSAY - IC50): > 10 µM
COc1ccc(C(NS(=O)(=O)c2ccc(-n3ncc(Cl)c(Cl)c3=O)cc2)C(C)C)cc1 (stereo unspecified) | – | 2.38 | IC50 (HEPG2TOX_HILL_SLOPE 9.92, HEPG2TOX_R_SQUARED 0.979, PBLUC_HILL_SLOPE 3.67, PBLUC_R_SQUARED 0.728, read-out: LUCIFERASE INFECTION ASSAY - IC50): 1.31 µM
O=C(NC(c1ccccc1)c1ccccc1)[C@H]1C[C@H](O)[C@@H](CO)O1 | > 10.1 | > 10.1 | –
O=C1C(=O)N(CCc2ccccc2)c2c1cccc2C(F)(F)F | – | 5.96 | IC50 (FFLUC_HILL_SLOPE 10.6, FFLUC_R_SQUARED 0.162, HEPG2TOX_HILL_SLOPE 9.24, HEPG2TOX_R_SQUARED 0.771, PBLUC_HILL_SLOPE 5.11, PBLUC_R_SQUARED 0.647, read-out: LUCIFERASE INFECTION ASSAY - IC50): 3.88 µM
COc1cccc(-c2cnn3ccc(Nc4ccc(NS(=O)(=O)c5ccc(C)cc5)cc4)nc23)c1 | – | > 6.8 | IC50 (HEPG2TOX_HILL_SLOPE 3.16, HEPG2TOX_R_SQUARED 0.917, PBLUC_HILL_SLOPE 15.1, PBLUC_R_SQUARED 0.0764, read-out: LUCIFERASE INFECTION ASSAY - IC50): 6.21 µM
Clc1ccc2nc(CSc3nnc4c(n3)[nH]c3ccccc34)cn2c1 | – | 9.67 | IC50 (FFLUC_HILL_SLOPE 14.4, FFLUC_R_SQUARED 0.465, PBLUC_HILL_SLOPE 2.72, PBLUC_R_SQUARED 0.431, read-out: LUCIFERASE INFECTION ASSAY - IC50): 4.31 µM
CC(C)CC(N)c1csc(NC(=O)Nc2ccccc2-c2ccccc2)n1 (stereo unspecified) | – | 4.16 | IC50 (PBLUC_HILL_SLOPE 10.5, PBLUC_R_SQUARED 0.579, read-out: LUCIFERASE INFECTION ASSAY - IC50): 3.37 µM
O=C(c1cnc2cc3c(cc2c1)OCCCO3)c1ccccc1O | – | 5.25 | IC50 (FFLUC_HILL_SLOPE 1.6, FFLUC_R_SQUARED 0.767, HEPG2TOX_HILL_SLOPE 8.36, HEPG2TOX_R_SQUARED 0.65, PBLUC_HILL_SLOPE 1.47, PBLUC_R_SQUARED 0.802, read-out: LUCIFERASE INFECTION ASSAY - IC50): 1.17 µM
O=C(/C(=C/c1ccc(F)cc1)c1ccc(-c2ccccc2)cc1)N1CCN(c2ccccc2Cl)CC1 | – | > 10 | IC50 (FFLUC_HILL_SLOPE 11.6, FFLUC_R_SQUARED 0.516, HEPG2TOX_HILL_SLOPE 7.73, HEPG2TOX_R_SQUARED 0.736, read-out: LUCIFERASE INFECTION ASSAY - IC50): > 10 µM
CC1Cc2cc(C(=O)CSc3nnc(Cc4cccs4)n3C)ccc2N1S(C)(=O)=O (stereo unspecified) | – | > 10 | IC50 (HEPG2TOX_HILL_SLOPE 2.13, 1.88, HEPG2TOX_R_SQUARED 0.890, 0.990, PBLUC_HILL_SLOPE 2.16, PBLUC_R_SQUARED 0.278, read-out: LUCIFERASE INFECTION ASSAY - IC50): 3.7 µM
CN1N=C(SCc2ccc(Cl)cc2Cl)Sc2c1cnn(C)c2=O | – | > 8.52 | IC50 (PBLUC_HILL_SLOPE 2.78, PBLUC_R_SQUARED 0.171, read-out: LUCIFERASE INFECTION ASSAY - IC50): 5.14 µM
Cn1c(N)c(C(=O)COC(=O)c2ccccc2-c2nc3ccccc3s2)c(=O)n(C)c1=O | – | > 10 | IC50 (PBLUC_HILL_SLOPE 14.7, PBLUC_R_SQUARED 0.767, read-out: LUCIFERASE INFECTION ASSAY - IC50): 9.26 µM
O=C(CSc1nnc(-c2ccc(Cl)cc2Cl)n1-c1ccc(F)c(Cl)c1)NCCC1=CCCCC1 | – | > 10 | IC50 (FFLUC_HILL_SLOPE 2.41, FFLUC_R_SQUARED 0.138, HEPG2TOX_HILL_SLOPE 7.97, HEPG2TOX_R_SQUARED 0.0659, PBLUC_HILL_SLOPE 2.87, PBLUC_R_SQUARED 0.0345, read-out: LUCIFERASE INFECTION ASSAY - IC50): 8.61 µM
CC(C)c1cc(C(=O)OCCCn2c(=O)[nH]c3ccccc32)c2cnn(C(C)C)c2n1 | > 10 | > 10 | –
CCCCc1[nH]nc2ccnc(-c3ccsc3)c12 | > 10 | > 10 | –
CCOC(=O)c1ccc(N/C=C(\C(C)=O)c2ccc(OC)c(OC)c2)cc1 | > 8.93 | > 8.93 | –
Cc1cc(Nc2cccc(C(F)(F)F)c2)n2ncc(C#N)c2n1 | – | 3.35 | IC50 (HEPG2TOX_HILL_SLOPE 1.43, HEPG2TOX_R_SQUARED 0.906, PBLUC_HILL_SLOPE 4.64, PBLUC_R_SQUARED 0.533, read-out: LUCIFERASE INFECTION ASSAY - IC50): 2.09 µM
